{
  "source": "patent US6548059B1",
  "about": "“Promotion of proliferation of adult corneal endothelial cells” (The Schepens Eye Research Institute, Inc., priority 1999, dated 2003)",
  "key": {"[1]": {"test_system": "corneal endothelial cells", "conditions": "for Avg. % KI67 (+) Cells: 24 hr pre-incubation in mitogen-containing medium, n = 2-3 donor corneas", "description": "(§1) Twenty-one human corneas were obtained from donors of about 52-75 years of age (Avg.=65.1 years old). Whole corneas were usually cut in quarters to increase sample size. In some cases, whole corneas were used as controls. Corneal pieces were placed endothelial-side up in individual wells of a 24-well tissue culture plate (Falcon, Lincoln Park, N.J.). Pieces were incubated for about 24 hrs in Medium-199 containing 10% fetal bovine serum (FBS), 10 ng/ml epidermal growth factor (EGF) (Upstate Biotechnologies, Lake Placid, N.Y.), 20 ng/ml fibroblast growth factor(FGF) (pituitary-derived, Biomedical Research Technologies, Stoughton, Mass.), and […] gentamicin to stabilize the endothelium prior to study. Ethylenediamine tetraacetic acid (e.g., di-sodium EDTA.2 H2O) was prepared in Hank's Balanced Salt Solution (HBSS) without calcium chloride, magnesium chloride, or magnesium sulfate: Life Technologies, Grand Island, N.Y.), adjusted to pH7.4, and added to the culture medium at a final concentration of 0.02, 0.2, or 2.0 mg/ml. Corneas were treated with EDTA for 10, 30, or 60 min and then returned to culture medium for up to 96 hrs. Negative controls for EDTA treatment included exposing corneal pieces to all manipulations and incubation conditions, including 1 hour in HBSS, but without EDTA. All corneas were maintained at 37° C. in a 5% carbon dioxide, humidified atmosphere until removal for analysis of cell cycle progression.\nImmunolocalization was carried out using the same antibodies and protocols as described previously for ZO-1 (10) and Ki67 (19). Corneal pieces stained for Ki67 were mounted in medium containing propidium iodide (PI: Vector Laboratories, Inc., Burlingame, Calif.) to visualize all nuclei. In some cases, samples were double-stained for both Ki67 and ZO-1. Slides were viewed using a Leica TCS 4D confocal microscope equipped with a Leitz DMRBE laser and SCANware 4.2 software (Leica Lasertechnik, Heidelberg, Germany). Images were collected from the central region of the corneal pieces away from the cut edges using a 16×, 40×, or 100×-oil immersion lens. Laser power and gain controls were adjusted to achieve an optimal range of output signal intensity for each channel. Confocal images were collected and micrographs were printed using Photoshop software v4.0 (Adobe Systems, Inc., San Jose, Calif.). For some micrographs, the printing contrast was adjusted to provide a clearer image.\nFluorescence confocal immunocytochemistry for Ki67 was used to evaluate corneal endothelial cells for their ability to enter and complete the cell cycle (i.e., cell proliferation or mitosis). All nuclei were stained with PI. Positive Ki67 staining patterns indicated the presence of actively cycling cells and also acted as markers for specific phases of the cell cycle. Completion of the cell cycle was determined by observation of mitotic figures stained with Ki67. Three representative confocal micrographs were taken per corneal quarter using a 40×-objective lens. An NIH Image v1.62 software program was used to count total PI-stained nuclei, total Ki67-positive cells, and cells in the G1-phase, S/G2-phase, or M-phase of the cell cycle. Cells were counted in five […] areas of each micrograph (=15 areas counted per corneal piece). Counts were averaged and the percentage of actively cycling cells and of cells in each phase of the cell cycle was calculated. Each study was conducted using corneas from 2-3 different donors. Statistical comparisons were made by a paired Student's t-test using a StatView v4.11 software program (Abacus Concepts, Inc., Berkeley, Calif.). Results reported in Table 1 were expressed as percentage of Ki67-positive cells +/−SD."}, "[2]": {"test_system": "corneal endothelial cell-cell contacts", "description": "as §1, with “All corneas were maintained at 37° C. in a 5% carbon dioxide, humidified atmosphere until removal for analysis of cell cycle progression.” left out"}},
  "note": "Like-named read-outs stand apart in the source and are kept apart here.",
  "data": [
    {"smiles": "O=C(O)CN(CCN(CC(=O)O)CC(=O)O)CC(=O)O", "note": "[EDTA, ethylenediaminetetraacetic acid]", "values": [
      {"measurement": "time to complete the cell cycle after EDTA treatment (mitotic figures)", "setting": "[1]; 24 hours pre-incubation, 0.2 mg/ml EDTA for 60 min, single donor", "result": "approximately 48 hrs"},
      {"measurement": "Avg. % KI67 (+) Cells", "setting": "[1]; EDTA 0.2 mg/ml, 30 minutes", "result": 8.67, "unit": "%"},
      {"measurement": "Avg. % KI67 (+) Cells", "setting": "[1]; EDTA 0.2 mg/ml, 60 minutes", "result": 11.99, "unit": "%"},
      {"measurement": "percent of the cells stimulated to proliferate", "setting": "[1]; EDTA 2.0 mg/ml for 60 minutes, after preincubation in culture medium", "result": "16-18%"},
      {"measurement": "Avg. % KI67 (+) Cells", "setting": "[1]; EDTA 2.0 mg/ml, 30 minutes", "result": 14.28, "unit": "%"},
      {"measurement": "Avg. % KI67 (+) Cells", "setting": "[1]; EDTA 2.0 mg/ml, 60 minutes", "result": 17.18, "unit": "%"},
      {"measurement": "percent of the cell population that entered the cell cycle", "setting": "[1]; intact endothelial monolayer treated with EDTA and mitogens", "result": "around 17%"},
      {"measurement": "cell cycle progression (Ki67 stained nuclei and mitotic figures)", "setting": "[1]; pre-incubation in mitogen-containing medium, then EDTA, 48 hour post-incubation", "result": "did promote cell cycle progression"},
      {"measurement": "proliferation (Ki67 staining) with EDTA alone", "setting": "[1]; up to 2.0 mg/ml EDTA, no prior or simultaneous growth factor, post-incubated 48 hours in mitogen-containing medium", "result": "did not promote proliferation"},
      {"measurement": "effect on cell-cell contacts (ZO-1 staining)", "setting": "[2]; 2.0 mg/ml EDTA for 60 minutes", "result": "caused cells to become rounded with only thin cytoplasmic strands connecting adjacent cells"},
      {"measurement": "percent of treated cells with interrupted cell-contacts", "setting": "[2]; corneal endothelial cells exposed to EDTA", "result": "at least 15%"}
    ]}
  ]
}
